The record followed here is patent US11376328B2, “Pharmaceutical composition” (Astellas Pharma Inc., priority 2017, dated 2022).

This series is described as follows: Solubility in water of the drug substance. Type of series: physicochemical. The following applies: drug substance as used. The text has this:
The drug solubility in water of a drug may be determined, for example, in accordance with the method described in the General Notices of The Japanese Pharmacopoeia, Seventeenth Edition.

Values after ≈ are worked out from the molar mass of the structure shown.

Broadly, the solubility is the concentration that dissolves in the medium under given conditions. A high value points to much dissolved substance. Compound `Cc1cccc(C)c1N(CC(=O)Nc1ccc(-c2ncon2)cc1)C(=O)C1CCS(=O)(=O)CC1` [amenamevir] registered a solubility at 30 min (water, 20 °C, thermodynamic from solid) of 5 µg/mL (≈ 10.4 µM).

Compound `C=CC[C@@H]1/C=C(\C)C[C@H](C)C[C@H](OC)[C@H]2O[C@@](O)(C(=O)C(=O)N3CCCC[C@H]3C(=O)O[C@H](/C(C)=C/[C@@H]3CC[C@@H](O)[C@H](OC)C3)[C@H](C)[C@@H](O)CC1=O)[C@H](C)C[C@@H]2OC` [tacrolimus] yielded a Solubility in water of 4 µg/mL (≈ 4.97 µM).
